Reference: patent publication US12582706B2, “Tolerogenic antigen presenting cells” (Cell4Cure AB, priority 2019, dated 2026)

How the values were obtained:
DCs [1] = assay: DC frequency of CD141^+GARP^+ cells (flow cytometry); assay type: cell-based, human; details: Example 13, FIG. 13(F); compared to control DCs
Description: (§1) CD14^+ monocytes were cultured at 1.25×10^6 cells/mi for 7 days in GMP DC Medium (CellGenix, Freiburg, Germany) containing HEPES, GlutaMAX and Penicillin-Streptomycin solution (Thermo Fisher, Waltham, MA) in the presence of granulocyte-macrophage colony-stimulating factor (GM-CSF; 100 ng/ml; PeproTech, London, UK) and interleukin-4 (IL-4; 100 ng/ml; PeproTech). Cells were replenished on day 3 with fresh medium and cytokines. […]
(§2) Cell surface expression was investigated using the following fluorescently labeled antibodies: CD11c (B-Ly6), CD83 (HB15e), CD86 (BU63), ILT3 (ZM4.1), CD141 (M80), GARP (7611), CD103 (B-Ly7), MERTK (590H11G1E3), BTLA (J168-540), CD49b (P1E6-05), HLA-G (87G), LAP (FNLAP), from BD Biosciences (Franklin Lakes, NJ), BioLegend (San Diego, CA) and Thermo Fisher. DCs were washed and resuspended in staining buffer (phosphate-buffered saline supplemented with 0.5% BSA and 2 mM EDTA) and incubated with antibody for 20 min followed by washing before acquisition on a MACSQuant 10 flow cytometer (Miltenyi Biotec) and analyzed using FlowJo software (BD Biosciences). […]

T cells = details: Bakdash et al, 2015; cited from earlier work
DCs [2] = assay: DC expression of CD86 (flow cytometry); assay type: cell-based, human
Description: as §1, §2

DCs [3] = assay: DC expression of ILT3 (flow cytometry); assay type: cell-based, human; details: Example 13, FIG. 13(C); compared to control DCs
Description: as §1, §2

DCs [4] = assay: DC expression of CD103 (flow cytometry); assay type: cell-based, human; details: Example 13, FIG. 13(E); compared to control DCs
Description: as §1, §2

Structure (SMILES)	frequency of GARP^+CD141^+ cells (DCs [1])	differentiation of Treg cells (T cells)	gut-homing specificity in T cells (T cells)	CD86 expression (MFI) on DCs (DCs [2]; FIG. 2(B), whether or not stimulated with LPS, compared to corresponding control DCs)	ILT3 expression (MFI) on DCs (DCs [3])	CD86 expression (MFI) on DCs (DCs [2]; Example 13, FIG. 13(B), compared to control DCs)	CD103 expression (MFI) on DCs (DCs [4])
CC1=C(/C=C/C(C)=C/C=C/C(C)=C/C(=O)O)C(C)(C)CCC1 [RA, all-trans retinoic acid]	higher frequency of GARP^+CD141^+ cells	enhance the differentiation of Foxp3^+ inducible as well as IL-10 producing Treg cells	induce gut-homing specificity in T cells	no resistance to upregulate CD86	higher expression of ILT3		
CCN(C(=O)c1c(O)c2c(Cl)cccc2n(C)c1=O)c1ccccc1 [AhR agonist, N-ethyl-N-phenyl-5-chloro-1,2-dihydro-4-hydroxy-1-methyl-2-oxo-quinoline-3-carboxamide]						lower expression	higher expression of CD103
